The source of these data is patent US20260001875A1, “AMINOPYRIMIDINYL DERIVATIVES FOR THE TREATMENT OF PARKINSON'S DISEASE” (UNIVERSITY OF DUNDEE, priority 2022, published 2026).

For orientation: IC50 means the concentration at which inhibition is half-maximal.

Where two headings read alike, the source gives them in different places.

The target in one experiment is VHL (Homo sapiens, UniProt P40337). As to the kind of experiment: NanoBRET VHL target engagement in HEK293 cells. The class given is binding. Set-up: host or cells: HEK293. Conditions: for IC50: read-out: IC50 VHL tracer displacement. The procedure: For VHL and LRRK2 target engagement experiments in live and permeabilized cells, the HEK293 cells were transfected with VHL-NanoLuc fusion vector (Promega, N275A) or LRRK2-NanoLuc fusion vector (Promega, NV3401) following Promega's protocol and seeded into white 384-well plate (Corning3570) at a density of 6000 cells/well. To measure NanoBRET in permeabilized cells, the cells were treated with 50 μg/mL digitonin (Sigma, D141), 125 nM VHL tracer/125 nM LRRK2 tracer, testing compounds at decreasing concentrations (12 concentrations with 2-fold serial dilution starting from 33 μM), and NanoBRET NanoGlo Substrate (Promega) at concentration recommended by the manufacturer's protocol. In the maximum signal control samples (DMSO control), DMSO was added instead of testing compounds. In the minimum signal control samples (no tracer control), DMSO and tracer dilution buffer were used to replace testing compounds and tracer separately. The filtered luminescence was measured within 10 min following addition of the substrate on a GloMax Discover microplate reader (Promega) or a PHERAstar (BMG LABTECH) plate reader equipped with a 450-nm bandpass filter (donor) and a 600-nm long pass filter (acceptor). To measure NanoBRET in live cells, the cells were treated with 250 nM VHL tracer/500 nM LRRK2 tracer, testing compounds at testing compounds at decreasing concentrations (12 concentrations with 2-fold serial dilution starting from 33 μM) and incubated at 37° C. in an incubator for 2 h. The plates were then cooled down and added with NanoBRET NanoGlo Substrate and Extracellular NanoLuc Inhibitor (Promega, N2160) before performing the same NanoBRET reading as the permeabilized mode on plate readers. NanoBRET ratio of each well was expressed in milliBRET according to the equation: mBRET=[(signal at […]/signal at 450 nM)−(signal at 610 nMno tracer control/signal at 450 nMno tracer control)]×1000. The fractional occupancy was calculated according to the equation: fractional occupancy=(mBRETtesting compound−mBRETno tracer control)/(mBRETDMSO control−mBRETno tracer control).
Sequence of VHL (P40337 whole entry, the tested form may be a part): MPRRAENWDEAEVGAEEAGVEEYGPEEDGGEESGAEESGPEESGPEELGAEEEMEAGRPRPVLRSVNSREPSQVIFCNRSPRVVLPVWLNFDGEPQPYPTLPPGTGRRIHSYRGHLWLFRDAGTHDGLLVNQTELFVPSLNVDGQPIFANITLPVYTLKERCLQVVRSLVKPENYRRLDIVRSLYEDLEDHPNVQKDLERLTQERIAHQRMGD

Another experiment deals with LRRK2 (Homo sapiens, UniProt Q5S007). As to the kind of experiment: NanoBRET-based ternary binding and cooperativity assay. Also on record: fused on or other part: NanoLuc luciferase fused to LRRK2 as the BRET donor tag. The settings on record: permeabilized HEK293 cells, with VCB; read-out: IC50 LRRK2 engagement in the presence of VCB protein. The procedure:
The HEK293 cells were transfected with LRRK2-NanoLuc fusion vector (Promega, NV3401) following Promega's protocol and seeded into white 384-well plate (Corning3570) at a density of 6000 cells/well. The cells were then treated with 50 μg/mL of digitonin, 125 nM of LRRK2 tracer, testing compounds at decreasing concentrations (11 concentrations with 2-fold serial dilution starting from 10 μM) or testing compounds and VCB mix (11 concentrations with 2-fold serial dilution starting from 10 μM compound for the compound. The first 6 concentrations of VCB start from 32 μM with 2-fold dilution, the last 5 concentrations of VCB keep at 1 μM), and NanoBRET NanoGlo Substrate (Promega) at concentration recommended by the manufacturer's protocol. In the maximum signal control samples (DMSO control), DMSO was added instead of testing compounds. In the minimum signal control samples (no tracer control), DMSO and LRRK2 tracer dilution buffer were used to replace testing compounds and LRRK2 tracer separately. The filtered luminescence was measured within 10 min following addition of the substrate on a PHERAstar (BMG LABTECH) plate reader equipped with a 450-nm bandpass filter (donor) and a 600-nm long pass filter (acceptor). The fractional occupancy was calculated according to the equation: fractional occupancy=(mBRETtesting compound−mBRETno tracer control)/(mBRETDMSO control−mBRETno tracer control).

Sequence of LRRK2 (Q5S007 whole entry, the tested form may be a part): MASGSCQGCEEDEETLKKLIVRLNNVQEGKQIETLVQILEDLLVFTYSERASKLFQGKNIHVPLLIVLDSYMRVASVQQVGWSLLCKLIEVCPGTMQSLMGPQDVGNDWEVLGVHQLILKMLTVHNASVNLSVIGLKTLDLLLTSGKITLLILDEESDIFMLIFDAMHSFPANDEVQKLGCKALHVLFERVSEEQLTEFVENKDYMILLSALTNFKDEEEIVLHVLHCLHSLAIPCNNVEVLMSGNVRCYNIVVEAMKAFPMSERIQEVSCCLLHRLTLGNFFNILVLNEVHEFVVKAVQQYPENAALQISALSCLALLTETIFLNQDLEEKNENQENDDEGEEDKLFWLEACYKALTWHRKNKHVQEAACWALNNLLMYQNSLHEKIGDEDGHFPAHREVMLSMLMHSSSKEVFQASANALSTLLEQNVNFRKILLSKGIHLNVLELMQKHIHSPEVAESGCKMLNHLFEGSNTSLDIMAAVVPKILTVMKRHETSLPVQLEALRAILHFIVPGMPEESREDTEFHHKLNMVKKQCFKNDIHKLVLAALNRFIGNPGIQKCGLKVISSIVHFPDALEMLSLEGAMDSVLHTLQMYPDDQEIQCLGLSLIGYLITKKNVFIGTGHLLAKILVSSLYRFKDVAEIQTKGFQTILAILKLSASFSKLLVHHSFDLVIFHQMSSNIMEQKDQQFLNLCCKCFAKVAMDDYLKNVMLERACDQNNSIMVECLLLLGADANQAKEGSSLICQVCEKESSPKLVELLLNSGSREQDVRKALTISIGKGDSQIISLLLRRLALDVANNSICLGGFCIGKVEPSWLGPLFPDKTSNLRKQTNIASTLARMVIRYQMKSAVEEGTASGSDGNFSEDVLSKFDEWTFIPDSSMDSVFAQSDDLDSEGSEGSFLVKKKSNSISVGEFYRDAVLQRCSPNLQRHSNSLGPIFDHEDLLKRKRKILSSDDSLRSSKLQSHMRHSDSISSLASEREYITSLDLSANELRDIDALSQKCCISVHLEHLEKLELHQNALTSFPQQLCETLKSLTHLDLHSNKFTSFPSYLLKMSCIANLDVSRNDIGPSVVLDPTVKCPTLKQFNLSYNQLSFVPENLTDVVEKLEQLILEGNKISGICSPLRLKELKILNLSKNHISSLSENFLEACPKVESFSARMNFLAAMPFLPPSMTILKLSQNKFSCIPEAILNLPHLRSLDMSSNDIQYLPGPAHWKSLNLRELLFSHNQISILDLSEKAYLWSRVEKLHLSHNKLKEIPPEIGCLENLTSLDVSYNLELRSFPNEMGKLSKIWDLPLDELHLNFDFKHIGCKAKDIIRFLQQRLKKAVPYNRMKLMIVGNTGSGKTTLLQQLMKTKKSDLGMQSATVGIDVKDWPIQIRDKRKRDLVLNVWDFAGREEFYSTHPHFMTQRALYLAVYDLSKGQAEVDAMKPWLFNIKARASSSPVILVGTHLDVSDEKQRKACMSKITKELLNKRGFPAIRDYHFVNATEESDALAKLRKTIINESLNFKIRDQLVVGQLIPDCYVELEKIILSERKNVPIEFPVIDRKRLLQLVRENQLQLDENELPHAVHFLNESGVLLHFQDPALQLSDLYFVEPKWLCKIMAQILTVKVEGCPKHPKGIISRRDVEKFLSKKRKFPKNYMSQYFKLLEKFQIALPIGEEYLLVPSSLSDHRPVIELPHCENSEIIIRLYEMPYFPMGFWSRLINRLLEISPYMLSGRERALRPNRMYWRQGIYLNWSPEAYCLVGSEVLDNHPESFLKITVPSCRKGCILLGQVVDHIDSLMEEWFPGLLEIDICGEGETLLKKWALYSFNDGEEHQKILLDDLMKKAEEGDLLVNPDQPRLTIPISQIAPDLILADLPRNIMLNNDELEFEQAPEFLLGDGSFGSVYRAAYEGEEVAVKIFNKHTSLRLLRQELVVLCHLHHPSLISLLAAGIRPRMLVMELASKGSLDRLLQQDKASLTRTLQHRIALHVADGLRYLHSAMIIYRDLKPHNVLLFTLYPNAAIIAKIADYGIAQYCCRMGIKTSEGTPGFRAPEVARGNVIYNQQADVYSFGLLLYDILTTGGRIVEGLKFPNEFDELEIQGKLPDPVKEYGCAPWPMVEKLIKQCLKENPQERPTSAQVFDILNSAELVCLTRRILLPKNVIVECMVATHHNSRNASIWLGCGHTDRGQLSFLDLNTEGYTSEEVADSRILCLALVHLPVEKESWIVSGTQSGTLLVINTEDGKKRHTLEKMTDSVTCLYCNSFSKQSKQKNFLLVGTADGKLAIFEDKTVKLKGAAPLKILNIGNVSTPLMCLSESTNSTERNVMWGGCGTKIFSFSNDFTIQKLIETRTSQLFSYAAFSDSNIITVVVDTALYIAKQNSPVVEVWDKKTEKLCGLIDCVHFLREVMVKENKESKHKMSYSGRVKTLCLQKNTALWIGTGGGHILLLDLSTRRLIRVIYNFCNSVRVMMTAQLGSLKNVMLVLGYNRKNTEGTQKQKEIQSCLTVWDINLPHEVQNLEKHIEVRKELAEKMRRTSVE

Consider `CNc1nc(Nc2ccc(C(=O)N3CCN(CCOCCOCCSC(C)(C)[C@H](NC(=O)C4(F)CC4)C(=O)N4C[C@H](O)C[C@H]4C(=O)NCc4ccc(-c5scnc5C)cc4)CC3)cc2OC)ncc1Cl` [SD75, (2S,4R)-1-((R)-3-((2-(2-(2-(4-(4-((5-chloro-4-(methylamino)pyrimidin-2-yl)amino)-3-methoxybenzoyl)piperazin-1-yl)ethoxy)ethoxy)ethyl)thio)-2-(1-fluorocyclopropane-1-carboxamido)-3-methylbutanoyl)-4-hydroxy-N-(4-(4-methylthiazol-5-yl)benzyl)pyrrolidine-2-carboxamide], for which the IC50 on VHL (live HEK293 cells) was 2500 nM; on VHL (permeabilized HEK293 cells) it was 1900 nM; at LRRK2 it was 1400 nM. For the same compound, the “IC50 ratio IC50, per/IC50, live (VHL engagement)” value on VHL (permeabilized vs live mode) turned out to be 0.76.
As for `CNc1nc(Nc2ccc(C(=O)N3CCN(C[C@H]4CC[C@H](CSC(C)(C)[C@H](NC(=O)C5(F)CC5)C(=O)N5C[C@H](O)CC5C(=O)NCc5ccc(-c6scnc6C)cc5)CC4)CC3)cc2OC)ncc1Cl` (stereo partly drawn) [XL01126, (2S,4R)-1-((R)-3-((((1R,4R)-4-((4-(4-((5-chloro-4-(methylamino)pyrimidin-2-yl)amino)-3-methoxybenzoyl)piperazin-1-yl)methyl)cyclohexyl)methyl)thio)-2-(1-fluorocyclopropane-1-carboxamido)-3-methylbutanoyl)-4-hydroxy-N-(4-(4-methylthiazol-5-yl)benzyl)pyrrolidine-2-carboxamide], the IC50 at VHL (live HEK293 cells) amounted to 10100 nM; on LRRK2 it was 350 nM. The “VHL tracer displacement (in words)” value at VHL (permeabilized HEK293 cells) is recorded as “poor displacement”.
`CNc1nc(Nc2ccc(C(=O)N3CCN(C[C@H]4CC[C@@H](CSC(C)(C)[C@H](NC(=O)C5(F)CC5)C(=O)N5C[C@H](O)CC5C(=O)NCc5ccc(-c6scnc6C)cc5)CC4)CC3)cc2OC)ncc1Cl` (stereo partly shown) [XL01134]: the concentration for half-maximal inhibition (IC50) at VHL (live HEK293 cells) is 880 nM; on VHL (permeabilized HEK293 cells), 780 nM; on LRRK2 it was 790 nM.
